Drawing on publication PMC8643619 (Plant and Cell Physiology, 2021), this text covers Km for nine molecules.

Assay [1] deals with PcAAE2. In words: coupled NADH oxidation assay. As to conditions: 10 mM MgCl2, pH 7.5, 30°C. It is filed as biochemical, Pogostemon cablin.
Assay [2] concerns PcAAE1. The assay can be described thus: coupled NADH oxidation assay. It is filed as biochemical, Pogostemon cablin. Conditions: 10 mM MgCl2, pH 7.5, 30°C.

Usually Km stands for the concentration of substrate that gives half-maximal velocity. Take `CC(C)CCC(=O)O` [4-Methylvaleric acid]: in assay [1] (1 mM CoA, 5 mM ATP), the Km came to 43.4 ± 5.1 µM. Turning to `CC(C)CCCC(=O)O` [5-Methylhexanoic acid], in assay [1] (1 mM CoA, 5 mM ATP), the Km came to 176 ± 20 µM.

As to `Nc1ncnc2c1ncn2[C@@H]1O[C@H](COP(=O)(O)OP(=O)(O)OP(=O)(O)O)[C@@H](O)[C@H]1O` [ATP], the Km in assay [1] (co-substrate 4-methylvaleric acid 1 mM, CoA 1 mM) was 160 µM; in assay [2] (co-substrate isovaleric acid 1 mM, CoA 1 mM), 89 µM. With `CCCC(=O)O` [Butyric acid], the Km in assay [1] (1 mM CoA, 5 mM ATP) was 570 ± 86.5 µM; in assay [2] (1 mM CoA, 5 mM ATP) it was 161 ± 5 µM. Consider `CC(C)(COP(=O)(O)OP(=O)(O)OC[C@H]1O[C@@H](n2cnc3c(N)ncnc32)[C@H](O)[C@@H]1OP(=O)(O)O)[C@@H](O)C(=O)NCCC(=O)NCCS` [CoA], for which the Km amounted to 40.2 µM in assay [1] (co-substrate 4-methylvaleric acid 1 mM, 5 mM ATP) and 28.2 µM in assay [2] (co-substrate isovaleric acid 1 mM, 5 mM ATP).

With `CCCCCCC(=O)O` [Heptanoic acid], the Km in assay [1] (1 mM CoA, 5 mM ATP) was 84.5 ± 7.1 µM.

Consider `CCCCCC(=O)O` [Hexanoic acid], for which, in assay [1] (1 mM CoA, 5 mM ATP), the Km came to 41.5 ± 2.4 µM. As for `CC(C)CC(=O)O` [Isovaleric acid], the Km in assay [1] (1 mM CoA, 5 mM ATP) stood at 217 ± 13.1 µM; in assay [2] (1 mM CoA, 5 mM ATP), 12.9 ± 0.8 µM.

Take `CCCCC(=O)O` [Valeric acid]: in assay [1] (1 mM CoA, 5 mM ATP), the Km was 53.9 ± 2.7 µM.
